Measured values reported in patent publication US20220267310A1, “QUINAZOLINE AND CINNOLINE DERIVATIVES AS DNA-PK INHIBITOR” (MEDSHINE DISCOVERY INC., priority 2019, published 2022).

What was measured:
[1] = molecular target: T1, DNA-PK (h) (Homo sapiens, UniProt P78527); test: DNA-PK kinase inhibitory activity (HTRF, Eurofins); type: biochemical; conditions: ATP: 10 μM
T1 construct: Eurofins Pharma Discovery Service (contract assay)
Method: (§1) This experiment was tested at Eurofins Pharma Discovery Service, Reaction Biology Corp. (RBC)
(§2) […] DNA-PK: Mg/ATP; GST-cMyc-p53; EDTA; Ser15 antibody; ATP: 10 μM; biotinylated phosphatidylinositol-3,4,5-triphosphate; GST label GRP1 PH domain; streptavidin and phycocyanin; europium-labelled monoclonal antibody against GST.
DNA-PK (h) was incubated in a determination buffer containing 50 nM GST-cMyc-p53 and Mg/ATP (density as required). The reaction was initiated by adding a mixture of Mg/ATP. After incubating at room temperature for 30 min, a termination solution containing EDTA was added to terminate the reaction. Finally, a detection buffer (containing labeled anti-GST monoclonal antibody and europium-labeled anti-phosphate Ser15 antibody against phosphorylated p53) was added. Then, the board was read in time-resolved fluorescence mode, and a Homogeneous Time Resolved Fluorescence (HTRF) signal was measured according to the formula HTRF=10000×(Em665 nm/Em620 nm).

[2] = molecular target: T2, PI3K (p110α/p85α) (Homo sapiens, UniProt P42336); test: PI3K (p110α/p85α) kinase inhibitory activity (HTRF); type: biochemical
T2 construct: Eurofins Pharma Discovery Service (contract assay)
T2 sequence (P42336 whole entry, species assumed): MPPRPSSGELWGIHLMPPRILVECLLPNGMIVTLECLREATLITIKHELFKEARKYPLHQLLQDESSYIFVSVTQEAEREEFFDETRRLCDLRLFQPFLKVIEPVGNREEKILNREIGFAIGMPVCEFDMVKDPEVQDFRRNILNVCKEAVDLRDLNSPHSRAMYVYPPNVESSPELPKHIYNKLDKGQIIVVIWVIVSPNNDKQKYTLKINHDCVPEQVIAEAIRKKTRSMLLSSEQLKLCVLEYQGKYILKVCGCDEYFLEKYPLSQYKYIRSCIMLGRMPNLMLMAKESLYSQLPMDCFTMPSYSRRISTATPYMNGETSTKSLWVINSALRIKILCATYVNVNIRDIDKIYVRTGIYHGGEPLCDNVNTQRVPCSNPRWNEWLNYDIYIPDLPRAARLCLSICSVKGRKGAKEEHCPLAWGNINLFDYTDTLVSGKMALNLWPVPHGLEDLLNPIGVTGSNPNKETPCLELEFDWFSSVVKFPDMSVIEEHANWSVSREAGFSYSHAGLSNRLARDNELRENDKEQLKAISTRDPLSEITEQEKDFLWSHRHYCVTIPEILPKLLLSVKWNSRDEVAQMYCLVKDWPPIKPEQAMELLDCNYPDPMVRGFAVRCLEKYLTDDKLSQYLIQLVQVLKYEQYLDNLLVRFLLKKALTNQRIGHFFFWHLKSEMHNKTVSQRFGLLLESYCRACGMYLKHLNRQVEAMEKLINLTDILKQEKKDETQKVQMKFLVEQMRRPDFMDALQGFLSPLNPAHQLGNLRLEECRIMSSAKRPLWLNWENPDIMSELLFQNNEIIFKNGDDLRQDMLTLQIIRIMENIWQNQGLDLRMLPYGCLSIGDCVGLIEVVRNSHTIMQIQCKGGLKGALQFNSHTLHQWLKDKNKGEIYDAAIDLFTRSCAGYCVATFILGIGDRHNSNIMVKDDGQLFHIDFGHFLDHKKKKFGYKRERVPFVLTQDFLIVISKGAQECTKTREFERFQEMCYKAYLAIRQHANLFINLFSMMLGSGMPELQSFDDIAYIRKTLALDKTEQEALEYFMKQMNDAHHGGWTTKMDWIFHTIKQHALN
T2 sequence (P27986 whole entry partner, species assumed): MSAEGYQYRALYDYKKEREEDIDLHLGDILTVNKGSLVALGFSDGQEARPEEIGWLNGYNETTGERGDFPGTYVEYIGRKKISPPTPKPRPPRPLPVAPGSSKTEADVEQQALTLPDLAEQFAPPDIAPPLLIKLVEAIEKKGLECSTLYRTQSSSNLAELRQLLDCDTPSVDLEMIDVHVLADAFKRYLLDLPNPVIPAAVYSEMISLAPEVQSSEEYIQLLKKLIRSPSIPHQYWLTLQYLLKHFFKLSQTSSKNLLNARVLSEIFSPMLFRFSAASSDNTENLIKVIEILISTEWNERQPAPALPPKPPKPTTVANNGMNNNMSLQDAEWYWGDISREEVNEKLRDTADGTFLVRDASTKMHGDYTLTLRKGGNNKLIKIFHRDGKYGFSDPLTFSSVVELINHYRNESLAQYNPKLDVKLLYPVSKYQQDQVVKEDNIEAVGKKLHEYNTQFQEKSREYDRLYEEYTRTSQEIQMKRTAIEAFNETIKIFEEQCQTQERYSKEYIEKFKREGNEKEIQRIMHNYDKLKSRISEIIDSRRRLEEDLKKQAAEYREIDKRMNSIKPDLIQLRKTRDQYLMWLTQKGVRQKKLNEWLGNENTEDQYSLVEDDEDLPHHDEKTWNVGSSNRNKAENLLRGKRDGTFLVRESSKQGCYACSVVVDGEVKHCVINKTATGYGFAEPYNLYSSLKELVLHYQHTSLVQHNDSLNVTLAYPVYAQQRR
Method: as §1, §2
PI3K (p110α/p85α) was incubated in a determination buffer containing phosphatidylinositol 4,5-diphosphate and Mg/ATP (density as required). The reaction was initiated by adding an ATP solution. After incubating at room temperature for 30 min, a termination solution containing EDTA and biotinylated phosphatidylinositol-3,4,5-triphosphate was added to terminate the reaction. Finally, a detection buffer (containing labeled anti-GST monoclonal antibody, PH domain of GRP1 with GST label and streptavidin and phycyanin and […]) was added. Then, the board was read in time-resolved fluorescence mode, and an HTRF signal was measured according to the formula HTRF=10000×(Em665 nm/Em620 nm).

[3] = molecular target: T3, PI3K (p110σ/p85α) (Homo sapiens, UniProt O00329); test: PI3K (p110σ/p85α) kinase inhibitory activity (HTRF); type: biochemical
T3 construct: Eurofins Pharma Discovery Service (contract assay)
T3 sequence (O00329 whole entry): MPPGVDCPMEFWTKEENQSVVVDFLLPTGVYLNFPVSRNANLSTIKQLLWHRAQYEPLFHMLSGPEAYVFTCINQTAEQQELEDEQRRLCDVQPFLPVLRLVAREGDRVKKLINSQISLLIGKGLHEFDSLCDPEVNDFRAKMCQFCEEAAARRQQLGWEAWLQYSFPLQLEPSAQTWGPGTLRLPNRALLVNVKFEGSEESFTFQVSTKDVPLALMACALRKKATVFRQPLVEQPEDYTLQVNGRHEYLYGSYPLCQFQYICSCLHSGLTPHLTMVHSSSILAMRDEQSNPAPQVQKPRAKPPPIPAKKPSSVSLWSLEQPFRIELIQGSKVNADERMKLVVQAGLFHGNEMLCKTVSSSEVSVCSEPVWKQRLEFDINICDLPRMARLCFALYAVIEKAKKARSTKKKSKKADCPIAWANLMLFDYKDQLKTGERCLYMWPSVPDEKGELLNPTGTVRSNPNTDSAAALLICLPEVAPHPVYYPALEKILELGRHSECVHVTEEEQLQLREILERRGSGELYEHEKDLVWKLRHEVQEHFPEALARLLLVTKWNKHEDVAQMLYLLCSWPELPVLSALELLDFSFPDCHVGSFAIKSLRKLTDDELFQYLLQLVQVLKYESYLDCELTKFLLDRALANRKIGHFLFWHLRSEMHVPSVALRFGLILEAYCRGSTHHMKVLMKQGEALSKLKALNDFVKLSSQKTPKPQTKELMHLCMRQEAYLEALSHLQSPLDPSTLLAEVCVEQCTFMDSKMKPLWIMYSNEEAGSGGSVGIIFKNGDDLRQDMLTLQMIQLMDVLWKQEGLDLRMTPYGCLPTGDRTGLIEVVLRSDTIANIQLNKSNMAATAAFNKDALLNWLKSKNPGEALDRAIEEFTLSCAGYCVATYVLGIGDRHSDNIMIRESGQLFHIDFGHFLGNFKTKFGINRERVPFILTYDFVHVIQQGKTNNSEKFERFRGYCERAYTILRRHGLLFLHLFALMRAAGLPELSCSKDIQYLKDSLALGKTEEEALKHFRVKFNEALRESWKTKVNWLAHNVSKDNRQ
T3 sequence (P27986 whole entry partner): as the sequence (P27986 whole entry partner, species assumed) above

[4] = Pharmacokinetic evaluation in mice, IV and PO; type: in vivo, Balb/c female mice; conditions: for Tlast / AUC(0-t) / C0 / clearance / half-life / Vd / Cmax / Tmax: mouse plasma; for bioavailability / AUC(0-t) / C0 / clearance / half-life / Vd / Cmax / Tmax: female, Balb/c; for bioavailability: plasma, mouse; for Vd: read-out: Vdss; for Tmax: read-out: Tmax
Method: The tested compound was mixed with 10% DMSO/50% PEG400/40% water, vortexized and ultrasonic to prepare 0.2 mg/mL or 0.4 mg/ml, approximately clarified solution, which was filtered by a microporous membrane and then standby. Balb/c female mice of 18-20 g were selected and given the candidate compound solution intravenously at a dose of 1 or 2 mg/kg. The tested compound was mixed with 10% DMSO/50% PEG400/40% water, vortexized and ultrasonic to prepare 0.2 mg/mL or 1 mg/mL approximately clarified solution, which was filtered by a microporous membrane and then standby. Balb/c female mice of 18 to 20 g were selected and given orally the candidate compound solution at a dose of 2 or 10 mg/kg. Whole blood was collected for a certain period of time, and plasma was prepared. Drug concentration was analyzed by LC-MS/MS method, and pharmacokinetic parameters were calculated by Phoenix WinNonlin software (US Pharsight company).
C0: instantaneous concentration required after intravenous injection; Cmax: the highest blood concentration after administration; Tmax: time required to reach peak concentration after administration; T1/2: the time required for blood drug concentration to decrease by half; Vdss: apparent volume of distribution, which refers to the ratio constant of drug dosage to blood concentration when a drug reaches dynamic equilibrium in vivo. Cl: clearance rate, referring to drug apparent distribution volume number removed from the body per unit time; Tlast: time of last detection point: AUC0-last: an area under a drug duration curve, referring to an area surrounded by the blood drug concentration curve on the time axis; Bioavailability: a measure of the rate and extent of drug absorption into the blood circulation, which was an important index to evaluate drug absorption degree.

[5] = tested on: human small cell lung cancer NCI-H69 xenograft tumor model; test: NCI-H69 xenograft, mono and combination with etoposide, 24-day experiment (Table 8); type: in vivo, BALB/c nude mice; conditions: etoposide 10 mg/kg alone
Method: Experiment example 3: in vivo pharmacodynamics of human small cell lung cancer NCI-H69 cell subcutaneous xenograft tumor BALB/c nude mouse model:
Experimental animals: Female BALB/c nude mice, 6-8 weeks old, weighing 15-22 grams; supplier: Shanghai Linchang Biotechnology Co., LTD. (Linchang, Shanghai)
Human small cell lung cancer NCI-H69 cells (ATCC, item number: HTB-119 and ECACC-95111733) were cultured in vitro in a culture condition of RPMI-1640 medium with 10% fetal bovine serum, 100 U/mL penicillin and 100 μg/mL streptomycin, incubated at 37° C. and 5% CO2. Conventional passage was carried out twice a week. When cell saturation was 80%-90% and the number reaches the requirement, cells were collected, counted and inoculated.
0.2 mL (10×10^6) NCI-H69 cells (with matrix glue, and volume ratio of 1:1) were subcutaneously inoculated into a right back of each mouse, and group administration was initiated when the average tumor volume reaches about 110-120 mm^3.
The tested compound was prepared as a 5 mg/mL clarified solution with 10% DMSO+50% polyethylene glycol 400+40% water as the solvent.
The experimental indicators refers to study whether tumor growth was inhibited, delayed, or cured. Tumor diameter was measured twice a week with a vernier caliper. The calculation formula of the tumor volume was V=0.5a×b^2, and a and b represent the long diameter and short diameter of the tumor, respectively.
The antitumor efficacy of the compound was evaluated by TGI (%) or relative tumor proliferation rate T/C (%). TGI (%) reflects the tumor growth inhibition rate. The calculation of TGI (%): TGI (%)=[1−(average tumor volume at the end of administration of a certain treatment group−average tumor volume at the beginning of administration of the treatment group)/(average tumor volume at the end of treatment in solvent control group−average tumor volume at the beginning of treatment in solvent control group)]×control group.
Relative tumor proliferation rate T/C (%): the calculation formula was as follows: T/C %=[…] TRTV/CRTV group (TRTV: treatment group RTV; CRTV: negative control group RTV). According to results of tumor measurement, Relative Tumor Volume (RTV) was calculated by the formula RTV=Vt/V0, where V0 was the average tumor volume measured in group administration (i.e., d0), and Vt was the average tumor volume measured in a certain single measurement. TRTV and CRTV collect data on the same day.
Statistic analysis includes an average value and a standard error (SEM) of tumor volume at each time point for each group. […] If there was no significant difference in F value, Dunnet (2-sided) method was applied to analysis. All data were analyzed using SPSS 17.0. P<0.05 was considered as having a significant difference.

## COc1ccc(C(O)c2cc(-c3cc(C(F)F)nc4cc(N5CCOCC5)ccc34)c(F)cc2Cl)nn1 (single isomer, unassigned) [Embodiment 16]
[1]
  IC50: 4250 nM

## COc1ccc(C(O)c2cc(-c3cnnc4cc(N5CCOCC5)ccc34)c(F)cc2Cl)nn1 (single isomer, unassigned) [Embodiment 4]
[1]
  IC50: 587 nM

## COc1ccc(C(O)c2cc(-c3cc(N)nc4cc(N5CCOCC5)cc(F)c34)c(F)cc2Cl)nn1 (single isomer, unassigned) [Embodiment 14]
[1]
  IC50: 2.7 nM

## COc1ccc(C(O)c2cc(-c3cnnc4c(F)c(N5CCOCC5)ccc34)c(F)cc2Cl)nn1 (centres unmarked) [Embodiment 7]
[1]
  IC50: 1.5 nM

## COc1ccc(C(O)c2cc(-c3cc(N)nc4c(F)c(N5CCOCC5)ccc34)c(F)cc2Cl)nn1 (single isomer, unassigned) [Embodiment 10]
[1]
  IC50: 0.5 nM

## COc1ccc(C(O)c2cc(-c3ccnc4cc(N5CCOCC5)ccc34)c(F)cc2Cl)nn1 (single isomer, unassigned) [Embodiment 1]
[1]
  IC50: 82 nM

## COc1ccc(C(O)c2cc(-c3cc(C(F)F)nc4cc(N5CCOCC5)ccc34)c(F)cc2Cl)nn1 (single isomer, unassigned) [Embodiment 15]
[1]
  IC50: 71 nM

## COc1ccc(C(O)c2cc(-c3ccnc4c(Cl)c(N5CCOCC5)ccc34)c(F)cc2Cl)nn1 (single isomer, unassigned) [Embodiment 6]
[1]
  IC50: 8 nM

## Cc1nccnc1C(O)c1cc(-c2cnnc3c(F)c(N4CCOCC4)cc(F)c23)c(F)cc1Cl (centres unmarked) [Embodiment 17]
[1]
  IC50: 15 nM

## Cc1nccnc1C(O)c1cc(-c2ccnc3c(F)c(N4CCOCC4)cc(F)c23)c(F)cc1Cl (centres unmarked) [Embodiment 23]
[1]
  IC50: 8.7 nM

## COc1ccc(C(O)c2cc(-c3cc(N)nc4cc(N5CCOCC5)cc(F)c34)c(F)cc2Cl)nn1 (centres unmarked) [Embodiment 13]
[1]
  IC50: 141 nM

## COc1ccc(C(O)c2cc(-c3cc(N)nc4c(F)c(N5CCOCC5)ccc34)c(F)cc2Cl)nn1 (single isomer, unassigned) [Embodiment 9]
[1]
  IC50: 840 nM

## COc1ccc(C(O)c2cc(-c3cnnc4cc(N5CCOCC5)ccc34)c(F)cc2Cl)nn1 (centres unmarked) [Embodiment 3]
[2]
  IC50: 509 nM
[3]
  IC50: 132 nM
[1]
  IC50: 3.5 nM
[4]; IV(1 mg/kg)
  Tlast: 8.00 h
  AUC(0-t): 1.85 µM·h
  C0: 1260 nM
  clearance: 17.9 mL/min/kg
  half-life: 1.27 h
  Vd: 1.42 L/kg
[4]; PO(2 mg/kg)
  Tlast: 8.00 h
  bioavailability: 48.2%
  AUC(0-t): 1.79 µM·h
  Cmax: 459 nM
  half-life: 2.83 h
  Tmax: 0.5 h

## COc1ccc(C(O)c2cc(-c3ccnc4c(F)c(N5CCOCC5)cc(F)c34)c(F)cc2Cl)nn1 (single isomer, unassigned) [Embodiment 21]
[1]
  IC50: 76 nM

## COc1ccc(C(O)c2cc(-c3cc(N)nc4cc(N5CCOCC5)ccc34)c(F)cc2Cl)nn1 (centres unmarked) [Embodiment 11]
[1]
  IC50: 4.7 nM

## COc1ccc(C(O)c2cc(-c3cnnc4c(F)c(N5CCOCC5)cc(F)c34)c(F)cc2Cl)nn1 (single isomer, unassigned) [Embodiment 20]
[1]
  IC50: 136 nM

## Cc1nccnc1C(O)c1cc(-c2ccnc3c(F)c(N4CCOCC4)cc(F)c23)c(F)cc1Cl (single isomer, unassigned) [Embodiment 24]
[1]
  IC50: 5.7 nM

## COc1ccc(C(O)c2cc(-c3cc(N)nc4cc(N5CCOCC5)ccc34)c(F)cc2Cl)nn1 (single isomer, unassigned) [Embodiment 12]
[1]
  IC50: 657 nM

## COc1ccc(C(O)c2cc(-c3ccnc4c(Cl)c(N5CCOCC5)ccc34)c(F)cc2Cl)nn1 (single isomer, unassigned) [Embodiment 5]
[1]
  IC50: 307 nM

## Cc1nccnc1C(O)c1cc(-c2cnnc3c(F)c(N4CCOCC4)cc(F)c23)c(F)cc1Cl (single isomer, unassigned) [Embodiment 18]
[1]
  IC50: 33 nM

## COc1ccc(C(O)c2cc(-c3ccnc4c(F)c(N5CCOCC5)cc(F)c34)c(F)cc2Cl)nn1 (single isomer, unassigned) [Embodiment 22]
[2]
  IC50: 43 nM
[3]
  IC50: 47 nM
[1]
  IC50: 0.8 nM
[4]; IV(1 mg/kg)
  Tlast: 8.00 h
  AUC(0-t): 1.98 µM·h
  C0: 1380 nM
  clearance: 15.4 mL/min/kg
  half-life: 1.89 h
  Vd: 2.32 L/kg
[4]; PO(2 mg/kg)
  Tlast: 8.00 h
  bioavailability: 50%
  AUC(0-t): 1.98 µM·h
  Cmax: 456 nM
  half-life: 6.25 h
  Tmax: 1 h

## COc1cc([C@@H]2c3cc4c(cc3[C@@H](O[C@@H]3O[C@@H]5CO[C@@H](C)O[C@H]5[C@H](O)[C@H]3O)[C@H]3COC(=O)[C@H]23)OCO4)cc(OC)c1O [Etoposide, etoposide, reference compound]
[5]
  RTV (24th day): 6.09 ± 0.85
  T/C (%) (24th day): 75.6%
  TGI (%) (24th day): 33.4%
[5]; average ± SEM, n = 9
  Tumor volume (mm^3) (0th day): 114 ± 9 mm^3
  Tumor volume (mm^3) (24th day): 654 + 48 mm^3

## COc1ccc(C(O)c2cc(-c3cnnc4c(F)c(N5CCOCC5)ccc34)c(F)cc2Cl)nn1 (single isomer, unassigned) [Embodiment 8]
[1]
  IC50: 138 nM

## COc1ccc(C(O)c2cc(-c3cc(OC)nc4cc(N5CCOCC5)ccc34)c(F)cc2Cl)nn1 (single isomer, unassigned) [Embodiment 25]
[1]
  IC50: 13100 nM
